“Also recorded” adds a separate entry of the source. Where two headings read alike, the source gives them in different places.
Legend:
[1] = tested on: all cell types (breast, brain, ovary, colon cancer cell lines); test: Summary of cytotoxicity over MTT, LDH and colony formation assays (FIGS. 2-5); type: cell-based, human; conditions: for IC50: Homo sapiens
From the text: The tumor cell-killing potency of NEO218 was characterized by in vitro, short-term MTT assays (measuring viability of cells via determination of metabolic activity), LDH assays (measuring the release of lactate dehydrogenase as an indicator of leaky cell membranes, which are indicative of dying cells), and colony-formation assays (CFA, which determine long-term survival of drug-treated cells and their ability to spawn a colony of descendants). Several established cell lines derived from cancers of the breast were used as target cells (including MDA-MB-231; MDA-MB-468; T47D; MCF7; MCF7/Dox; BTB12), brain (T98G; U251), ovary (A2780), and colon (HCT116). In all cases, cells in culture were exposed to increasing concentrations of agents for 24 or 48 hours.

[2] = tested on: cleaved caspase 7, cleaved PARP, γ-H2AX in MCF7, MDA-MB-231 and HCT116 cells; test: Western blot for apoptosis markers; type: cell-based, human; conditions: STS as positive control
Procedure: (§1) (A) FACS analysis of HCT116 cells after treatment for 2, 4, or 8 hours with vehicle, 30 μM 3-BP, 30 μM NEO218, or 1 μM staurosporine (STS). […] (B) Western blot analysis of apoptotic markers. In the top section, MDA-MB-231 cells were treated with 30 μM NEO218 or 1 μM STS for various time points. In the lower section, HCT116 cells were treated with the indicated concentrations of 3-BP, NEO218, or STS for 16 hours. In all cases cell lysates were prepared and analyzed for the well-established apoptotic markers cleaved PARP, cleaved (i.e., activated) caspase 7 (cl. C-7), and phosphorylated (i.e., active) H2AX. Actin was used as a loading control. (C) HCT116 cells were pretreated with 50 μM Z-VAD-FMK for one hour, followed by the addition of increasing concentrations of 3-BP or NEO218. Cell viability was determined by MTT assay 24 hours later. Data points are averages from n=3.
The capacity for NEO218 to induce apoptosis was evaluated in a series of experiments. Three different cell lines were treated 3-BP and NEO218. Drug-treated cells were harvested, and cellular lysates were analyzed by Western blot for the presence of the three well-established markers of apoptosis: • cleaved caspase 7 (cl. C7); • cleaved (cl.) vs. full-length (f.l.) PARP; and, • induction of γ-H2AX (which indicates DNA cleavage).
The appearance of cl. C7 and cl. PARP is indicative of ongoing apoptotic processes. In all cases, lysates were also probed for the presence of actin as a control.
Two breast cancer cell lines (MCF7 and MDA-MB-231) and one colon cancer cell line (HCT116) were treated with increasing concentrations of NEO218 or 3-BP. As a control, they were also treated with staurosporine (STS), a known potent inducer of apoptosis. Western blot analyses for the presence of apoptosis markers are shown in the left panels of FIG. 6.
Total cell lysates were analyzed by Western blot analysis as described earlier. Primary antibodies against cleaved caspase 7 and PARP were obtained from Cell Signaling Technology (Danvers, Mass.), and antibodies against actin (C-11) and MCT1 (H-1) were obtained from Santa Cruz Biotechnology (Santa Cruz, Calif.). All antibodies were used according to the manufacturers' recommendations, except that in the case of MCT1 detection, the boiling step was omitted before loading the samples onto the polyacrylamide gel. All immunoblots were repeated at least once to confirm the results.

[3] = tested on: HCT116 colon cancer cells; test: MTT assay with pan-caspase inhibitor zVAD pre-treatment; type: cell-based, human; conditions: 50 μM zVAD 1 hour before drug, MTT after 24 hours
Procedure: as §1
The capacity for NEO218 to induce apoptosis was further evaluated in a series of experiments using an MTT assay. The apoptosis-blocker zVAD (z-VAD-FMK), an agent that acts as a pan-caspase inhibitor, was used. HCT116 colon cancer cells were treated for 1 hour with or without 50 μM zVAD, followed by increasing concentrations of NEO218 or 3-BP. Twenty-four hours thereafter, cell viability was determined by MTT assay.

[4] = tested on: HCT116 cells; test: FACS analysis for annexin V and propidium iodide; type: cell-based, human; conditions: for incorporation of PI (necrosis) versus annexin V (apoptosis): 2, 4 or 8 hours of treatment; for earliest detection of shift to PI-positive quadrant after onset of treatment: HCT116, 30 μM; for PI-positive cells at 8 hours: HCT116, 8 hours
Procedure: as §1
In the absence of indications that apoptotic mechanisms played a significant role in cell death induced by NEO218, necrosis was investigated as a potential key mechanism. The distinction between apoptotic and necrotic cell death was made by measuring annexin V staining (a marker of apoptosis) and PI (propidium iodide) staining (a marker of necrosis) of drug-treated cells, in comparison to non-drug-treated cells (as a control). Measurements of annexin V and PI were done by FACS analysis after 2, 4, or 8 hours of treatment. Cells were treated with NEO218, 3-BP, and staurosporine (individually), and incorporation of propidium iodide (PI, a marker of necrotic cell death) or annexin V (a marker for apoptosis) was determined by fluorescence-activated cell sorting.
The results are organized in FIG. 8 as follows: no treatment (top row), 3-BP (second row), NEO218 (third row), and staurosporine (bottom row).
Characterization of cell death was performed by flow cytometry using the Alexa Fluor® 488 Annexin V/Dead Cell Apoptosis kit (Thermo Fisher Scientific). This kit contains recombinant, green fluorophore-conjugated annexin V, which reacts with apoptotic cells, and DNA-binding, red-fluorescent propidium iodide (PI), which is impermeant to live and apoptotic cells, but stains dead cells. The different cell populations can be distinguished by green fluorescence (apoptotic cells), red fluorescence (necrotic/dead cells), and no fluorescence (live cells) during flow cytometry with 488 nm laser excitation. Control or drug-treated cells were processed as per manufacturer's instructions, followed by flow cytometry of 10,000 cells per point with an LSR II (BD Biosciences, San Jose, Calif.) at the USC Flow Cytometry Core Facility.

[5] = tested on: HCT116 cells; test: cells; conditions: Homo sapiens; for IC50: HCT-116, 24 h, read-out: half-maximal effect, MTT assay
Procedure: (A) MTT assay was performed after 24 hours. Viability of untreated cells was set at 100% (n=3).
Methylthiazoletetrazolium (MTT) assays were performed as described earlier [38]. Briefly, cells were seeded into 96-well plates at 2.0 to 8.0×10^3 cells per well and exposed to drug treatment (or solvent alone) for 24 or 48 hours. In individual experiments, each treatment condition was set up in triplicate, and each experiment was repeated several times independently.

[6] = all cell types, FIGS. 2-5, read-out: IC50 (ability of a drug to reduce cell survival by 50%)

| Structure (SMILES) | IC50 [1, 6] | IC50 ([1]; cell types in which 3-BP is not similarly potent, read-out: concentrations required for cell death in less sensitive cell types) | induction of apoptosis markers (cleaved PARP, cleaved caspase 7, γ-H2AX) [2] | effect of zVAD pre-treatment on drug-induced cell death [3] | incorporation of PI (necrosis) versus annexin V (apoptosis) [4] | incorporation of PI (necrosis) versus annexin V (apoptosis) ([4]; listed as 3-GP) | earliest detection of shift to PI-positive quadrant after onset of treatment [4] | PI-positive cells at 8 hours [4] | IC50 [5] | cytotoxicity at 40 µM ([5]; HCT-116, read-out: reduction of apparent viability in MTT assay) | killing of drug-resistant cells ([1]; T98G (TMZ-resistant) and MCF7/Dox (multi-drug-resistant) cells) | time to initiation of cell death ([4]; FIG. 8 and LDH time course of FIG. 4) |
| --- | --- | --- | --- | --- | --- | --- | --- | --- | --- | --- | --- | --- |
| O=C(O)C(=O)CBr [3-BP, 3-bromopyruvate] | 10 to 200 µM | > 200 µM | responded only minimally, if at all | did not affect the cytotoxic IC50; also recorded: did not prevent induction of cell death | vigorous incorporation of PI, but very little annexin V | move straight from the bottom left quadrant to the upper right quadrant | 2 h | the majority of cells was PI-positive | ~18 µM | 75% |  |  |
| C=C(C)[C@@H]1CC=C(COC(=O)C(=O)CBr)CC1 [NEO218, 3-bromo-2-oxo-propionic acid 4-isopropenyl-cyclohex-1-enylmethyl ester] | 5 to 30 µM |  | responded only minimally, if at all; also recorded: barely affects these same markers | did not affect the cytotoxic IC50; also recorded: did not prevent induction of cell death | move straight from the bottom left quadrant to the upper right quadrant; also recorded: vigorous incorporation of PI, but very little annexin V |  | 2 h | the majority of cells was PI-positive | ~18 µM |  | effectively killed | 1 to 2 h |

— US10858305B2, “Perillyl alcohol-3-bromopyruvate conjugate and methods of treating cancer” (NeOnc Technologies, Inc., priority 2016, dated 2020)
